In US20180348222A1, “BUFADIENOLIDE FOR TREATMENT OF NON-SMALL CELL LUNG CANCER” (priority 2017, published 2018):

Legend:
A549 and H1975 cells [1] = test: Apoptosis assay, co-treatment with Proscillaridin A; type: cell-based
Method: (§1) A549, H1975 and HCC827 cells (1×10^5 cells /well) were seeded in a 6 -well plate for 24 h, and treated with the indicated concentrations of Proscillaridin A for an additional 24 h at 37° C. After indicated hours, the cells were washed by ice-cold 1×PBS once and harvested by trypsination. Then cell were centrifuged, collected and resuspended in ice-cold 1×PBS. After removing the supernatants, cell pellets were re-suspended in 100 μL 1× Annexin-binding buffer. The cells were then double-stained with Annexin-V FITC and PI (100 μg/mL) of 2 μL respectively for 15 min at room temperature in dark. After that, 300 μL 1× Annexin-binding buffer was added. Apoptotic cells were quantitatively counted by a BD Aria III Flow Cytometer (BD Biosciences, San Jose, Calif., USA).

A549 cells [2] = test: MTT cytotoxicity assay; type: cell-based; conditions: A549, EGFR wild type, 24 h
Method: (§2) Cells were seeded in a 96-well microplate with 3000-5000 cells/well confluence, and put into the incubator overnight for cells adhesion. Different concentrations of drug Proscillaridin A were added with Dimethyl sulfoxide (DMSO) as vehicle control. The microplates were incubated for further 24 h. Each dosage was repeated in triplicate. 10 μL of MTT (5 mg/mL) solution was added to each well. The plate was placed back into the incubator for 4 h. After that, 100 μL of resolved solution (10% SDS and 0.1 mM HCL) was added to each well.
(§3) Before dissolving the formazan crystals, the microplate was put back into the incubator for another 4 h. The absorbance of the plate was measured at 570 nm with reference 650 nm by a microplate reader (Tecan, Morrisville, N.C., USA). Cell viability was calculated by percentages of the absorbance of the treatment group divided by the absorbance of untreated group. At least three independent experiments were performed for data analysis and presentation.

[3] = system: CCD19-LU normal lung fibroblast cell line; test: MTT cytotoxicity assay; type: cell-based
Method: as §2, §3

H1975 cells [4] = test: MTT cytotoxicity assay; type: cell-based; conditions: H1975, EGFR double mutant, 24 h
Method: as §2, §3

H2228 cells = test: MTT cytotoxicity assay; type: cell-based; conditions: H2228, EML4-ALK, 24 h
Method: as §2, §3

H358 cells = test: MTT cytotoxicity assay; type: cell-based; conditions: H358, KRAS, 24 h
Method: as §2, §3

HCC78 cells = test: MTT cytotoxicity assay; type: cell-based; conditions: HCC78, SLC3482-ROS, 24 h
Method: as §2, §3

HCC827 cells [5] = test: MTT cytotoxicity assay; type: cell-based; conditions: HCC827, EGFR exon 19 deletion, 24 h
Method: as §2, §3

Na^+/K^+ ATPase = Na^+/K^+ ATPase enzyme activity assay; type: biochemical; conditions: in vitro, enzyme from porcine cerebral cortex
Method: The enzymatic activity of Na^+/K^+ ATPase (purchased from Sigma as lyophilized powder from porcine cerebral cortex) was measured by colorimetric quantification of P, released during ATP hydrolysis. A previously published procedure was adapted with some modifications. Begin with incubating 10 μl of Na^+/K^+ ATPase (600 units/m1) with 2.5 μl of KCl/NaCl solution (45 mM KCl and 2 M NaCl) at 37° C. for 30 min with either 5 μl of DMSO (control) or 5 μl of P.A (in different indicated concentrations) in 67.5 μl of buffer (24 mM Tric HCl buffer with 0.68 mM ethylenediaminetetraacetic acid and 6.0 mM magnesium chloride, pH 7.8). ATP (5 μl of 80 mM solution) was then added, and the reaction mixture was incubated again at 37° C. for 15 min. Trichloroacetic acid (30 μl of 100% w/v) was then added to the reaction mixture followed by centrifugation for 5 min. Supernatant (50 μl aliquot) was transferred to a 96 well plated containing 100 μl of Taussky-Shorr reagent. The absorbance at 660 nm was read after incubation at RT for 5 min.

A549 cells [6] = test: Apoptosis assay (Annexin-V/PI flow cytometry); type: cell-based
Method: as §1

H1975 cells [7] = test: Apoptosis assay (Annexin-V/PI flow cytometry); type: cell-based
Method: as §1

HCC827 cells [8] = test: Apoptosis assay (Annexin-V/PI flow cytometry); type: cell-based; conditions: HCC827, 50 nM, 24 h
Method: as §1

[9] = system: EGFR phosphorylation of tyrosine residue 1173 in H1975; test: Western blot of EGFR activation; type: cell-based; conditions: H1975, 18 hours
Method: (§4) After incubation A549, H1975 and HCC827 cells with Proscillaridin A for 18 hours, cells were harvested and washed with cold 1× PBS. Then, cells were lysed with ice-cold RIPA lysis buffer with protease and phosphatase inhibitors added to extract the cell protein extraction. The supernatants were collected by centrifugation at 12,000 g, for 5 min. The quantitation of total protein extraction was measured by Bio-Rad DCTM protein assay kit (Bio-Rad, Philadelphia, Pa., USA). Then 35 μg of protein were loaded and electrophoretically separated on 8% SDS-PAGE gel and then transferred to Nitrocellulose (NC) membrane.
(§5) Membranes were blocked with 5% non-fat milk and […] containing 0.1% Tween-20 (TBST) for 1 h at room temperature. After 1 h, membranes were incubated with primary antibodies (1:1000 dilution) against β-actin, GAPDH, total/phosphor-EGFR, total/phosphor-AKT, total/phosphor-JNK, total/phosphor-AMPK, total/phosphor-ACC, phosphor-mTOR, IKK-α, Iκ-Bα, phosphor-NFκB-P65, Caspase-9, Caspase-7, BAX and Bcl-2 at 4° C. with gently shaking overnight. Membranes were washed with TBST for 3 times (5 min/time), and incubated with secondary fluorescent antibody (1:10000 dilutions) for 1 h at room temperature. Rewashing with TBST for 3 times (15 min/time), the stripes were visualized by LI-COR Odessy scanner (Belfast, Me., USA).

[10] = system: EGFR phosphorylation of tyrosine residue 1173 in HCC827; test: Western blot of EGFR activation; type: cell-based; conditions: HCC827, 18 hours
Method: as §4, §5

[11] = system: A549, H1975 and HCC827 cells; test: Colony-formation assay; type: cell-based; conditions: all three cell lines
Method: Colony-forming assay was performed as previously described. Briefly, About 300 cells were plated into every well of 6 -well plate with 2 ml of culture medium and grown at 37° C. with 5% CO2. After 48 h culture for cell adherence to the plate, rinsed with fresh medium, Proscillaridin A (with indicated different dosages) was added to the medium. 48 h later, the cells were washed twice with PBS and then incubated in drug-free medium. The medium was changed every 5 days. After culturing for additional 10 to 14 days, the medium was discarded and each dish was washed twice with PBS carefully. The cells were fixed with 3.7% Paraformaldehyde for 20 min and 0.2% crystal violet solution in 10% ethanol for 10 min. Excess stain was removed by washing repeatedly with PBS. All the procedures were done at room temperature. The plates can be stored at room temperature or at +4° C. for several months without any visible fading of the dye.

A549 and H1975 cells [12] = test: Measurement of intracellular calcium (Fluo-3); type: cell-based; conditions: A549 and H1975, after 6 h
Method: Changes in intracellular free calcium were measured by a fluorescent dye, Fluo-3 as previously described. Briefly, A549 and H1975 cells were washed twice with culture media after Proscillaridin A treatment (6.25-25 nM) for 6 hours. Then cell suspensions were incubated with 5 μM Fluo-3 at 37° C. for 30 min. After the cells were washed twice with HBSS, the re-suspended cell samples were then subjected to FACS analysis. At least 10,000 events were analyzed.

[13] = system: PARP, Caspase-7, Caspase-9, AKT, BAX, Bcl-2; test: Western blot of apoptosis-related proteins; type: cell-based; conditions: A549, H1975, HCC827
Method: as §4, §5

AMPK phosphorylation = test: Western blot; type: cell-based; conditions: FIG. 8A
Method: as §4, §5

JNK phosphorylation = test: Western blot; type: cell-based; conditions: FIG. 8A
Method: as §4, §5

NF-κB pathway = test: Western blot; type: cell-based; conditions: dose-dependent
Method: as §4, §5

[14] = system: acetyl-CoA carboxylase (ACC) phosphorylation; test: Western blot; type: cell-based; conditions: FIG. 8A
Method: as §4, §5

mTOR phosphorylation = test: Western blot; type: cell-based; conditions: FIG. 8A
Method: as §4, §5

DR4 expression = test: Regular and quantitative RT-PCR; type: cell-based; conditions: 12 h treatment
Method: Cells were incubated with Proscillaridin A for 12 hours. Total RNA was then extracted from treated cells using a TRIzol reagent (Invitrogen, Carlsbad, Calif., USA) following the manufacturer's instructions and was used to prepare cDNA. Quantitative real-time PCR was performed with High-productivity Real-Time quantitative PCR ViiA™7 (Life Technologies).
The glyceraldehyde […] dehydrogenase (GAPDH) gene was used as the reference gene. All data were means of fold change of triplicate analysis and normalized with those of GAPDH.

c1cc(-c2cnn3cc(-c4ccc(OCCN5CCCCC5)cc4)cnc23)ccn1 [Compound C]
apoptotic cells after co-treatment with Proscillaridin A (A549 and H1975 cells [1]; AMPK inhibitor co-treatment, A549 and H1975): partially weakened the apoptotic cells

Proscillaridin A
CC50 (A549 cells [2]): 14 ± 2.8 nM | CC50 ([3]; CCD19-LU normal fibroblast cell, 24 h): > 400 nM | inhibition of cell proliferation in normal lung fibroblast cells ([3]; CCD19-LU, 30-folds higher concentrations of the CC50 in EGFR-dependent NSCLC cells): no significant inhibitory effect | CC50 (H1975 cells [4]): 15 ± 3.6 nM | CC50 (H2228 cells): 23.6 ± 5.4 nM | CC50 (H358 cells): 25.8 ± 4.9 nM | CC50 (HCC78 cells): 37.6 ± 9.9 nM | CC50 (HCC827 cells [5]): 13.9 ± 1.8 nM | IC50 (Na^+/K^+ ATPase): 0.83 ± 0.3 nM | apoptotic cells (A549 cells [6]; A549, 50 nM, 24 h): about 70% | concentration at which significant induction of apoptosis starts (A549 cells [6]; A549, 24 h): 12.5 nM | apoptotic cells (H1975 cells [7]; H1975, 50 nM, 24 h): about 70% | concentration at which significant induction of apoptosis starts (H1975 cells [7]; H1975, 24 h): 25 nM | increase of apoptosis (HCC827 cells [8]): about 10% | EGFR activation (phosphorylation of tyrosine residue 1173) [9]: inhibited the EGFR activation | EGFR activation (phosphorylation of tyrosine residue 1173) [10]: inhibited the EGFR activation | clonogenic growth (colony formation) [11]: can suppress clonogenic growth | cellular Ca^2+ level (A549 and H1975 cells [12]): remarkably increases the in vitro Ca^2+ level | AKT activation [13]: inhibited | BAX level [13]: up-regulated | Bcl-2 level [13]: down-regulated | PARP, Caspase-7 and Caspase-9 cleavage [13]: cleaved and activated | phosphorylation of AMPK (AMPK phosphorylation): significantly induced the phosphorylation of AMPK | phosphorylation of JNK (JNK phosphorylation): significantly activated the phosphorylation of JNK | NF-κB pathway activation (NF-κB pathway): significantly inhibited | phosphorylation of ACC [14]: significantly induced the phosphorylation | phosphorylation of mTOR (mTOR phosphorylation): inhibited the phosphorylation of mTOR | DR4 gene expression (DR4 expression): significantly elevated

CC(=O)OCOC(=O)CN(CC(=O)OCOC(C)=O)c1ccccc1OCCOc1ccccc1N(CC(=O)OCOC(C)=O)CC(=O)OCOC(C)=O [BAPTA/AM]
apoptotic cells after co-treatment with Proscillaridin A (A549 and H1975 cells [1]; Ca^2+ chelator co-treatment, flow cytometry): significant decrease of apoptotic cells
